Earlier results as cited in patent publication US20080306069A1, “Pyrazole Derivatives for the Inhibition of CDK'S and GSK'S” (ASTEX THERAPEUTICS LIMITED, priority 2005, published 2008).

Tested on: malignant cells from B-cell chronic lymphocytic leukemia (B-CLL)
Conditions: in vitro

Structure (SMILES)	apoptosis of malignant B-CLL cells
CN1CC[C@H](c2c(O)cc(O)c3c(=O)cc(-c4ccccc4Cl)oc23)[C@H](O)C1 [Flavopiridol, flavopiridol]	induce in vitro apoptosis
CC[C@H](CO)Nc1nc(NCc2ccccc2)c2ncn(C(C)C)c2n1 [CYC 202]	induce in vitro apoptosis
